Read-outs that look alike come from different tables or passages of the source.
Legend:
[1] = tested on: plasma; test: Plasma coagulation assay: activated partial thromboplastin time (APTT); format: biochemical; conditions: Actin (Dade), CaCl2
Protocol: (§1) The numerical values in the table are the concentrations of the test compounds (ng/ml) required to prolong coagulation by 2-fold in the three tests. The thrombin time evaluation was carried out in plasma and separately determined in a buffer system at […].
(§2) The data presented in Table 2 were obtained using a CoaScreener instrument from Tecan, Inc. in the assay protocols listed below. Prothrombin Time: 50 µl plasma 50 µl saline 7 µl test solution 50 µl thromboplastin (Dade) Thrombin Time: 50 µl plasma 50 µl saline 7 µl test compound 50 µl bovine thrombin (2 NIH unit/ml) In the Thrombin Time determined in pH 7.4 buffer fibrinogen was used instead of plasma. APTT: 50 µl plasma 50 µl Actin (Dade) 7 µl test solution 50 µl CaCl2 (0.01M).

[2] = tested on: plasma; test: Plasma coagulation assay: prothrombin time; format: biochemical; conditions: thromboplastin (Dade)
Protocol: as §1, §2

[3] = molecular target: T1, bovine thrombin (Bos taurus, UniProt P00735); test: Thrombin time in buffer (fibrinogen instead of plasma); format: biochemical; conditions: buffer pH 7.5, fibrinogen instead of plasma
T1 construct: 50 µl bovine thrombin (2 NIH unit/ml)
Protocol: as §1, §2

[4] = tested on: Arterial Thrombosis in the Rat; test: FeCl3-induced arterial thrombosis in the carotid artery of the rat; format: in vivo; conditions: infusion from 15 min before to 60 min after FeCl3 application, NA = Not active at 4 mg/kg/h or at 7 mg/kg/h, the highest doses tested
Protocol: The antithrombotic activity of representative compounds of the invention was determined in in vivo tests carried out in the rat. The test employed induced arterial thrombosis in the carotid artery of the rat and measured the infusion dose of test compound required to maintain blood flow for fifty minutes past the time of occlusion. The test was performed as follows.
Arterial thrombosis was induced in the rat by injury of the carotid artery. Topical application of a ferric chloride solution was used to injure the vessel. […] Animals were laid on a water blanket in which the circulated water was maintained at 37° C. The carotid artery was approached through a midline cervical incision. Careful blunt dissection was used to expose and isolate the vessel from the carotid sheath. A silk suture was pulled underneath the artery to lift the vessel to provide clearance to insert a thermocouple underneath it. […] The discs were cut to equal size using sharpened stainless steel tubing (3 mm i.d.) chucked in a drill press. A saturated disc was placed on each carotid artery above the thermocouple. The time between FeCl3 application and the time at which temperature decreased abruptly was recorded as time to occlusion (TTO) of the vessel. The average time required for both vessels to occlude was used to represent TTO for each animal.
Test compounds were dissolved in isotonic saline. A syringe pump was used to infuse drug solutions starting 15 min before FeCl3 application and continuing for 60 min after FeCl3 application. Dose-response curves were plotted to determine the relationship between the log10 of the infused doses and the TTO of the injured arteries.
The association between vessel occlusion and the abrupt temperature decrease was established by simultaneously recording the temperature and blood flow on the same recorder. A pulsed Doppler flow probe was placed around the carotid artery proximal to the thermocouple. […] Results were reported as percent change from initial baseline values (6 min before occlusion). The time at which vessel temperature decreased rapidly was arbitrarily established as zero and pre- and post-occlusion temperature and flow values were referenced from that point.

[5] = molecular target: T1, bovine thrombin; test: Plasma coagulation assay: thrombin time; format: biochemical; conditions: plasma, bovine thrombin (2 NIH unit/ml)
Protocol: as §1, §2

[6] = molecular target: T2, thrombin (Bos taurus, UniProt P00735); test: Inhibition of thrombin amidase activity (chromogenic substrate N-benzoyl-D-phenylalanyl-L-valyl-L-arginyl-p-nitroanilide); format: biochemical
T2 construct: purchased
Protocol: The data in the table were obtained in an assay in which thrombin hydrolyzes the chromogenic substrate, N-benzoyl-D-phenylalanyl-L-valyl-L-arginyl-p-nitroanilide.
The assay was carried out in 50 µl buffer (0.03M Tris, 0.15M NaCl, pH 7.4) with 25 µl of thrombin solution (0.21 mg/ml of thrombostat powder in 0.06 M Tris, 0.3M NaCl, pH 7.4) and 150 µl of an aqueous solution of the chromogenic substrate at a concentration of 0.25 mg/ml. Solutions of test compound (25 µl) at various concentrations were added. […] Standard curves were constructed by plotting free thrombin concentration against hydrolysis rate. […] The amount of free inhibitor in each assay was calculated by subtracting the number of moles of bound thrombin from the number of moles of added inhibitor (test compound).
The Kass value is the hypothetical equilibrium constant for the reaction between thrombin and the test compouhnd (I). Thrombin + I ⇄ Thrombin - I [formula] Kass =([Thrombin I])/([ (Thrombin) x (I) ]) [formula]
Kass was calculated for a range of concentrations of test compounds and the mean value is reported in units of liter per mole.

Kd [6]	Structure (SMILES)	APTT: concentration of test compounds required to prolong coagulation by 2-fold [1]	Prothrombin Time: concentration of test compounds required to prolong coagulation by 2-fold [2]	Buffer (pH 7.5) Thrombin Time: concentration of test compounds required to prolong coagulation by 2-fold [3]	ED50 (infusion dose required to maintain blood flow for 50 min) [4]	Thrombin Time: concentration of test compounds required to prolong coagulation by 2-fold [5]	Kd ([6]; apparent equilibrium (association) constant, mean over a range of concentrations, pH 7.4, acetate salts unless indicated otherwise, read-out: Thrombin Amidase Kass (converted))
	CC(C)(C)OC(=O)NC(C(=O)N1CCC[C@H]1C(=O)N[C@H](C=O)CCCNC(=N)N)c1cccc2ccccc12 (mixture of isomers) [N-Boc-DL-1-naphthylglycyl]	2272 ng/mL	1136 ng/mL	112 ng/ml	5.5 mg/kg/h	320 ng/mL	55.2 nM
19.2 nM	CC(C)(C)OC(=O)N[C@@H](C(=O)N1CCC[C@H]1C(=O)N[C@H](C=O)CCCNC(=N)N)c1cccc2ccccc12 [N-Boc-D-1-naphthylglycyl, N-Boc-D-1-naphthylglycyl-Pro-Arg-H diacetate]	3100 ng/mL	1225 ng/mL	105 ng/ml	6.4 mg/kg/h	230 ng/mL	

Source: EP0837071A1, “Tripeptide antithrombotic agents” (ELI LILLY AND COMPANY, priority 1990, dated 1992)
